Like-named read-outs stand apart in the source and are kept apart here.
Experiments:
COX-2 = assay: Gene expression in LPS activated RAW 264.7 macrophages, COX-2; format: cell-based, mouse; details: RAW 264.7, 10 μM, LPS 1 μg/ml, RNA 3 hrs after activation, vs vehicle treated activated cells
Protocol: (§1) RAW 264.7 macrophages, a mouse cell line (ATCC # TIB 71), were grown in Dulbecco's modified Eagle's medium (DMEM) with 4 mM L-glutamine adjusted to contain 1.5 g/L sodium bicarbonate, 4.5 g/L glucose, and 10% heat inactivated fetal bovine serum. Cells were grown in tissue culture flasks and seeded at appropriate density into 6 wells tissue culture plates. Four million Raw cells in half a milliliter were stimulated with 1 μg/ml LPS E. coli 055:B5 (DIFCO Laboratories). The mouse macrophages were pre-treated for one hour with controls or 10 μM of test compounds, and later on activated with LPS. RNA samples were extracted from the cells 3 hrs after activation and gene expression levels were analyzed by real-time RT-PCR. In parallel, supernatants were collected and secretion of inflammatory mediators was analyzed using ELISA techniques according to the instructions of the kit manufacturer.
(§2) Total RNA is prepared using SV total RNA isolation system (Promega). The cells were homogenized in lysis buffer. The lysates were transferred to an RNA isolation column, treated with DNAse, washed and eluted according to kit instructions. RNA concentrations were determined using GeneQuant II (Pharmacia-Amersham). Complementary DNA (cDNA) was synthesized from total RNA using […] II reverse transcriptase (Life Technologies). 2 μg of total RNA were combined with an oligo (dT)15 primer, 0.5 mM dNTP mix, 8 units of reverse transcriptase and other reaction components up to a final volume of 20 μl, according to the kit instructions. The reaction mixture was incubated at 42° C. for 45 min and inactivated at 70° C. for 15 minutes. Quantitative real-time RT-PCR included 1 μl of the cDNA, 300 nM of the appropriate forward and reverse primers (according to the gene monitored) and 7.5 μl of the reaction mix containing buffer, nucleotides, Taq polymerase and SYBER green (SYBER Green master mix, Applied Biosystems), in a total reaction volume of 15 μl. Gene amplification was obtained using the GeneAmp 5700 sequence detection system (Applied Biosystems). Amplification included one stage of 10 minutes at 95° C. followed by 40 cycles of a 2-steps loop: 20 seconds at 95° C., and 1 minute at 60° C. During each annealing step, the amount of the amplified product was measured by the fluorescence of the double strand DNA binding dye, SYBER Green. The cycle of threshold (CT), representing the PCR cycle at which an increase in fluorescence above a baseline signal can be first detected, was determined for each product. A delay of one PCR cycle in the CT is translated into a two-fold decrease in starting template molecules and vice versa. The changes in the CT of the specific gene product were normalized to the changes in the CT of housekeeping cyclophilin or GAPDH as reference genes. Results were expressed as fold increase of gene expression in treated or untreated activated cells above the resting cells, after normalization to cyclophilin or GAPDH. Cells were also tested for viability to confirm that any effect on gene expression was indeed due to modulation of transcription of a specific target and not to cytoxicity.
(§3) Results were further expressed as percent inhibition of gene expression in compound treated activated cells over vehicle “treated” activated cells. Since the modulation of IL-10 and TNF-α gene expression by the compounds of the invention is relatively minor, it is not reported. […] Inhibition above 50% was considered significant.

MCP-1 = assay: Gene expression in LPS activated RAW 264.7 macrophages, MCP-1; format: cell-based, mouse; details: RAW 264.7, 10 μM, LPS 1 μg/ml, RNA 3 hrs after activation, vs vehicle treated activated cells
Protocol: as §1, §2, §3

IL-1β = assay: Gene expression in LPS activated RAW 264.7 macrophages, IL-1β; format: cell-based, mouse; details: RAW 264.7, 10 μM, LPS 1 μg/ml, RNA 3 hrs after activation, vs vehicle treated activated cells
Protocol: as §1, §2, §3

[1] = tested on: carrageenan induced inflammatory pain and paw edema; assay: Inflammatory pain and paw edema induced by carrageenan; format: in vivo, Male Sprague Dawley rats; details: for inhibition in vivo at 10 mg/kg / inhibition in vivo at 3 mg/kg: Rattus norvegicus, ip; for inhibition in vivo at 3 mg/kg: 3 mg/kg i.p. (one asterisk)
Procedure, shortened: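 Male Sprague Dawley rats (~200 g) received 0.1 ml 2% λ-carrageenan subplantar in the right paw; compounds given i.p. at 3, 10 or 20 mg/kg (some p.o.) immediately after. Thermal (Hargreaves) latency, mechanical threshold, paw thickness and volume measured at 0 and 3 h; values are inter-paw differences ([…], ΔForce), volume as % of vehicle.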

[2] = 10 mg/kg i.p., 3 hours after carrageenan, reduction in paw swelling, read-out: Percent Inhibition of Inflammatory Pain Responses, Edema
[3] = 10 mg/kg i.p., 3 hours, mechanical stimulus, read-out: Percent Inhibition of Inflammatory Pain Responses, ΔForce
[4] = 10 mg/kg i.p., 3 hours, thermal stimulus, read-out: Percent Inhibition of Inflammatory Pain Responses, ΔLT

Structure (SMILES)	Percent inhibition of gene expression, COX-2 (COX-2)	Percent inhibition of gene expression, MCP-1 (MCP-1)	Percent inhibition of gene expression, IL-1β (IL-1β)	inhibition in vivo at 10 mg/kg [1, 2] [%]	inhibition in vivo at 10 mg/kg [1, 3] [%]	inhibition in vivo at 10 mg/kg [1, 4] [%]	reduction of paw swelling ([1]; 5 mg/kg p.o.) [%]	reduction of paw swelling ([1]; 20 mg/kg p.o.) [%]	inhibition in vivo at 3 mg/kg ([1]; 3 hours, mechanical stimulus, read-out: Percent Inhibition of Inflammatory Pain Responses, ΔForce) [%]	inhibition in vivo at 3 mg/kg ([1]; 3 hours, reduction in paw swelling, read-out: Percent Inhibition of Inflammatory Pain Responses, Edema) [%]	inhibition in vivo at 3 mg/kg ([1]; 3 hours, thermal stimulus, read-out: Percent Inhibition of Inflammatory Pain Responses, ΔLT) [%]	Percent Inhibition of Inflammatory Pain Responses, Edema ([1]; 10 mg/kg i.p., 3 hours after carrageenan, reduction in paw swelling) [%]	Percent Inhibition of Inflammatory Pain Responses, ΔForce ([1]; 10 mg/kg i.p., 3 hours, mechanical stimulus) [%]	Percent Inhibition of Inflammatory Pain Responses, ΔLT ([1]; 10 mg/kg i.p., 3 hours, thermal stimulus) [%]
CCCCC(C)(C)c1cc(O)c2c(c1)OC1(C)CCCC21 (stereo not drawn) [Compound C5S-1, 6-(1,1-dimethylpentyl)-8a-methyl-2,3,3a,8a-tetrahydro-1H-8-oxa-cyclopenta[α]inden-4-ol]	29%	NO (NO indicates that the compound tested did not significantly affect the transcription of the gene assessed and that its activity is comparable to vehicle, within ±20% from this control)	47%	–	–	–	–	–	–	–	–	–	–	–
CCCCCCC(C)(C)c1cc(O)c2c3c(oc2c1)C(=O)CCC3(C)C [Compound C6M-9, 7-(1,1-Dimethylheptyl)-9-hydroxy-1,1-dimethyl-2,3-dihydro-1H-dibenzofuran-4-one]	50%	37%	NO (NO indicates that the compound tested did not significantly affect the transcription of the gene assessed and that its activity is comparable to vehicle, within ±20% from this control)	49	27	75	–	–	–	–	–	–	–	–
CCCCC(C)(C)c1cc(O)c2c(c1)OC1C2CCC(C)(C)C1O (stereo not shown) [Compound C6S-7, 3-(1,1-dimethylpentyl)-7,7-dimethyl-5a,6,7,8,9,9a-hexahydro-dibenzofuran-1,6-diol]	–	–	–	–	41	54	–	–	–	–	–	–	–	–
CCCCC(C)(C)c1cc(O)c2c(c1)OC1CCCCC21 (stereo not shown) [Compound C6S-3, 3-(1,1-dimethylpentyl)-5a,6,7,8,9,9a-hexahydro-dibenzofuran-1-ol]	65%	55%	74%	48	49	84	–	–	–	–	–	–	–	–
CCCCCCC(C)(C)c1cc(O)c2c(c1)OC1C=CCCC21 (stereo not shown) [Compound C6S-2, 3-(1,1-Dimethylheptyl)-5a,8,9,9a-tetrahydro-dibenzofuran-1-ol]	61%	44%	58%	36	30	58	–	–	–	–	–	–	–	–
CCCCCCC(C)(C)c1cc(O)c2c(c1)OC1C(O)CCCCC21 (stereo not drawn) [Compound C7S-2, 2-(1,1-dimethylheptyl)-5,6,7,8,9,9a-hexahydro-4bH-10-oxa-benzo[α]azulen-4,9-diol]	26%	NO (NO indicates that the compound tested did not significantly affect the transcription of the gene assessed and that its activity is comparable to vehicle, within ±20% from this control)	NO (NO indicates that the compound tested did not significantly affect the transcription of the gene assessed and that its activity is comparable to vehicle, within ±20% from this control)	–	–	–	41	50	66	56	66	–	–	–
CCCCCCC(C)(C)c1cc(O)c2c(c1)OC1(C)CCCC21 (stereo not drawn) [Compound C5S-2, 6-(1,1-dimethylheptyl)-8a-methyl-2,3,3a,8a-tetrahydro-1H-8-oxa-cyclo-penta[α]inden-4-ol]	NO (NO indicates that the compound tested did not significantly affect the transcription of the gene assessed and that its activity is comparable to vehicle, within ±20% from this control)	NO (NO indicates that the compound tested did not significantly affect the transcription of the gene assessed and that its activity is comparable to vehicle, within ±20% from this control)	81%	–	–	–	–	–	–	–	–	48	8	43
